# Measured values published in patent US12660819B2, “Herbicidal derivatives” (SYNGENTA CROP PROTECTION AG, priority 2020, dated 2026).
# Tests used:
# Type in all cases: in vivo
# [1] = tested on: Setaria faberi (SETFA); experiment: Post-emergence Test (glasshouse, percentage damage to the plant); conditions: post-emergence; 1000 g/ha unless otherwise stated; evaluated after 13 days
# In short: (§1)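 Sown pots; spray 1000 g/ha (unless stated) in acetone/water 50:50 + 0.5% Tween 20; glasshouse 24/16 °C, 14 h light, 65% RH; watered twice daily; % damage read at 13 days, scored 1–5.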
# [2] = tested on: Ipomoea hederacea (IPOHE); experiment: as above; conditions: post-emergence; 1000 g/ha unless otherwise stated; evaluated after 13 days
# In short: as §1
# [3] = tested on: Amaranthus retoflexus (AMARE); experiment: as above; conditions: post-emergence; 1000 g/ha unless otherwise stated; evaluated after 13 days
# In short: (§2)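 Seeds sown in pots in glasshouse (24/16 °C day/night, 14 h light, 65% humidity), then sprayed with compound at 1000 g/ha unless stated, from acetone/water 50:50 with 0.5% Tween 20. Damage assessed 13 days later on five-point scale (1=0–20% to 5=81–100%).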
# [4] = tested on: Amaranthus palmeri (AMAPA); experiment: as above; conditions: post-emergence; 1000 g/ha unless otherwise stated; evaluated after 13 days
# In short: as §2
# [5] = tested on: Zea mays (ZEAMX); experiment: as above; conditions: post-emergence; 1000 g/ha unless otherwise stated; evaluated after 13 days
# In short: as §1
# [6] = tested on: Echinochloa crus-galli (ECHCG); experiment: as above; conditions: post-emergence; 1000 g/ha unless otherwise stated; evaluated after 13 days
# In short: as §2
# [7] = tested on: Zea mays (ZEAMX); experiment: Pre-emergence Test (glasshouse, percentage damage to the plant); conditions: 1000 g/ha unless otherwise stated, Zea mays
# [8] = tested on: Amaranthus palmeri (AMAPA); experiment: as above; conditions: 1000 g/ha unless otherwise stated, Amaranthus palmeri
# [9] = tested on: Echinochloa crus-galli (ECHCG); experiment: as above; conditions: 1000 g/ha unless otherwise stated, Echinochloa crus-galli
# [10] = tested on: Ipomoea hederacea (IPOHE); experiment: as above; conditions: 1000 g/ha unless otherwise stated, Ipomoea hederacea
# [11] = tested on: Amaranthus retoflexus (AMARE); experiment: as above; conditions: 1000 g/ha unless otherwise stated, Amaranthus retoflexus
# [12] = tested on: Setaria faberi (SETFA); experiment: as above; conditions: 1000 g/ha unless otherwise stated, Setaria faberi
SMILES,"SETFA, percentage damage caused to the plant (five-point scale) [1]","IPOHE, percentage damage caused to the plant (five-point scale) [2]","AMARE, percentage damage caused to the plant (five-point scale) [3]","AMAPA, percentage damage caused to the plant (five-point scale) [4]","ZEAMX, percentage damage caused to the plant (five-point scale) [5]","ECHCG, percentage damage caused to the plant (five-point scale) [6]","percentage damage to the plant, ZEAMX (five-point scale) [7]","percentage damage to the plant, AMAPA (five-point scale) [8]","percentage damage to the plant, ECHCG (five-point scale) [9]","percentage damage to the plant, IPOHE (five-point scale) [10]","percentage damage to the plant, AMARE (five-point scale) [11]","percentage damage to the plant, SETFA (five-point scale) [12]"
"CCn1c(C)c(-c2cccc(C(F)(F)F)c2F)c(=O)c(C(=O)O)c1-c1ccc(Cl)c(Cl)c1 [Compound 207, 2-(3,4-dichlorophenyl)-1-ethyl-5-[2-fluoro-3-(trifluoromethyl)phenyl]-6-methyl-4-oxo-pyridine-3-carboxylic acid]",4 (4=61-80%),4 (4=61-80%),3 (3=41-60%),3 (3=41-60%),3 (3=41-60%),4 (4=61-80%),1 (1=0-20%),3 (3=41-60%),2 (2=21-40%),3 (3=41-60%),3 (3=41-60%),5 (5=81-100%)
"CCn1c(C)c(-c2ccc(F)cc2)c(=O)c(C(=O)O)c1-c1cnc(Cl)c(Cl)c1 [Compound 211, 2-(5,6-dichloro-3-pyridyl)-1-ethyl-5-(4-fluorophenyl)-6-methyl-4-oxo-pyridine-3-carboxylic acid]",1 (1=0-20%),1 (1=0-20%),2 (2=21-40%),3 (3=41-60%),1 (1=0-20%),1 (1=0-20%),0,4 (4=61-80%),1 (1=0-20%),0,1 (1=0-20%),0
"CCn1c(CBr)c(-c2ccc(Cl)cc2)c(=O)c(C(=O)OC)c1-c1ccc(Cl)c(Cl)c1 [Compound 218, methyl 6-(bromomethyl)-5-(4-chlorophenyl)-2-(3,4-dichlorophenyl)-1-ethyl-4-oxo-pyridine-3-carboxylate]",2 (2=21-40%),0,3 (3=41-60%),3 (3=41-60%),1 (1=0-20%),1 (1=0-20%),0,0,0,0,0,0
"CCn1c(C)c(-c2ccc(F)cc2)c(=O)c(C(=O)OC)c1-c1cnc(Cl)c(Cl)c1 [Compound 212, methyl 2-(5,6-dichloro-3-pyridyl)-1-ethyl-5-(4-fluorophenyl)-6-methyl-4-oxo-pyridine-3-carboxylate]",0,0,1 (1=0-20%),1 (1=0-20%),0,0,0,1 (1=0-20%),2 (2=21-40%),0,0,3 (3=41-60%)
"CCn1c(C)c(-c2cc(C(F)(F)F)ccc2F)c(=O)c(C(=O)O)c1-c1ccc(Cl)c(Cl)c1 [Compound 206, 2-(3,4-dichlorophenyl)-1-ethyl-5-[2-fluoro-5-(trifluoromethyl)phenyl]-6-methyl-4-oxo-pyridine-3-carboxylic acid]",4 (4=61-80%),2 (2=21-40%),4 (4=61-80%),4 (4=61-80%),1 (1=0-20%),2 (2=21-40%),0,4 (4=61-80%),2 (2=21-40%),3 (3=41-60%),2 (2=21-40%),5 (5=81-100%)
"CCn1c(C)c(-c2ccc(Cl)cc2F)c(=O)c(C(=O)O)c1-c1cnc(Cl)c(Cl)c1 [Compound 242, 5-(4-chloro-2-fluoro-phenyl)-2-(5,6-dichloro-3-pyridyl)-1-ethyl-6-methyl-4-oxo-pyridine-3-carboxylic acid]",5 (5=81-100%),4 (4=61-80%),5 (5=81-100%),5 (5=81-100%),4 (4=61-80%),5 (5=81-100%),2 (2=21-40%),5 (5=81-100%),5 (5=81-100%),4 (4=61-80%),4 (4=61-80%),5 (5=81-100%)
"CCn1c(C)c(-c2ccc(F)cc2F)c(=O)c(C(=O)O)c1-c1cnc(Cl)c(Cl)c1 [Compound 210, 2-(5,6-dichloro-3-pyridyl)-5-(2,4-difluorophenyl)-1-ethyl-6-methyl-4-oxo-pyridine-3-carboxylic acid]",4 (4=61-80%),3 (3=41-60%),5 (5=81-100%),4 (4=61-80%),3 (3=41-60%),4 (4=61-80%),0,4 (4=61-80%),1 (1=0-20%),0,3 (3=41-60%),2 (2=21-40%)
